62 molecules from PMC6627609, “Targeting Quorum Sensing: High-Throughput Screening to Identify Novel LsrK Inhibitors” (International Journal of Molecular Sciences, 2019) can be followed below.

Each structure is given as a SMILES string. Where a name gives a salt, the structure may show the parent alone.

The experiment deals with LsrK (Salmonella typhimurium, UniProt Q8ZKQ6). The experiment is described as follows: biochemical. The experiment is classed as biochemical, S. typhimurium. To be noted: for Inhibition (%): 50 µM.
LsrK, sequence (Q8ZKQ6 whole entry): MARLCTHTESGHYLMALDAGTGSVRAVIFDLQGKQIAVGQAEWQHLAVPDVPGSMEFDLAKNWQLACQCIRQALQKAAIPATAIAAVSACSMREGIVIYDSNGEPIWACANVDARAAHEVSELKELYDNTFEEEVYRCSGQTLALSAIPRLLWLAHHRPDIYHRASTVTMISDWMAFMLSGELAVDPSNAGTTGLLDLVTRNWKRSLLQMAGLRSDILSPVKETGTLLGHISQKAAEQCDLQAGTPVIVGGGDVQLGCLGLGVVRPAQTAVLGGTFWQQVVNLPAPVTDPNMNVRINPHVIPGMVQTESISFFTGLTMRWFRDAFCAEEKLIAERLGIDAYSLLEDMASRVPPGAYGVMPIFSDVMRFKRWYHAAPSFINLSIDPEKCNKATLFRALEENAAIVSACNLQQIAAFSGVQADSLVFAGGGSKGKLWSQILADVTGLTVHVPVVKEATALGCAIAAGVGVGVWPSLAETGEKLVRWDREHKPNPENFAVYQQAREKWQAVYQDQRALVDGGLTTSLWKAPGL

Take `CCCCN1CCCCC1C(=O)Nc1c(C)cccc1C` (stereo not drawn) [BUPIVACAINE HYDROCHLORIDE]: the inhibition at 50 µM was found to be 2%.
Take `CCCCN(CCCC)CCCOC(=O)c1ccc(N)cc1` [BUTACAINE]: the inhibition at 50 µM came out at 3%.
On the same count and under the same terms, the result for `CC(=O)OC[C@@]1(O)C[C@@]23CC[C@@H]4c5ccoc5CC[C@@]4(C)[C@@H]2CC[C@@H]1C3` [CAFESTOL ACETATE] reads 1%.
On to `CC[C@@]1(O)C(=O)OCc2c1cc1n(c2=O)Cc2cc3ccccc3nc2-1` [CAMPTOTHECIN], for which the inhibition at 50 µM is 1%.
`CCOc1nc2cccc(C(=O)OC(C)OC(=O)OC3CCCCC3)c2n1Cc1ccc(-c2ccccc2-c2nn[nH]n2)cc1` (stereo not drawn) [CANDESARTAN CILEXTIL, reference compound]: the “Inhibition (%)” value was found to be 101. Moreover, the half-inhibitory concentration (IC50) (read-out: IC50 against LsrK) was determined as 14 µM.
In the case of `C[C@]12CCC(=O)C=C1C=C[C@@H]1[C@@H]2CC[C@@]2(C)[C@H]1CC[C@@]2(O)CCC(=O)[O-].[K+]` [CANRENOIC ACID. POTASSIUM SALT], the “Inhibition (%)” value is recorded as 0.
Regarding `C[C@]12CCC(=O)C=C1C=C[C@@H]1[C@@H]2CC[C@@]2(C)[C@H]1CC[C@@]21CCC(=O)O1` [CANRENONE], the inhibition at 50 µM was found to be 1%.
On the same count and under the same terms, the result for `C[C@@]12C(=O)OC(=O)[C@]1(C)[C@H]1CC[C@@H]2O1` [CANTHARIDIN] reads 4%.
On to `CC1=C(/C=C/C(C)=C/C=C/C(C)=C/C=C/C=C(C)/C=C/C=C(C)/C=C/C2=C(C)C(=O)CCC2(C)C)C(C)(C)CCC1=O` [CANTHAXANTHIN (euglenanone), CANTHAXANTHIN], for which the “Inhibition (%)” value turned out to be 2.
The same measure, in the same setting: the result for `CCCCCCCCCCCCCCC(C(=O)O)C(O)(CC(=O)OC)C(=O)O` (stereo not drawn) [CAPERATIC ACID] reads 8.
In the case of `COc1cc(CNC(=O)CCCC/C=C/C(C)C)ccc1O` [CAPSAICIN], the inhibition at 50 µM came to 2%.
Still for that read-out and setting: to `CC1=C(/C=C/C(C)=C/C=C/C(C)=C/C=C/C=C(C)/C=C/C=C(C)/C=C/C(=O)[C@]2(C)C[C@@H](O)CC2(C)C)C(C)(C)C[C@H](O)C1` [CAPSANTHIN] belongs 1%; to `COC(=O)C[C@H]1C(C)(C)C(=O)[C@@H]2CC3C4=CC(=O)O[C@@H](c5ccoc5)[C@]4(C)CC[C@@H]3[C@@]1(C)C2=O` (stereo partly drawn) [CARAPIN], 2%; to `C[N+](C)(C)CCOC(N)=O` [CARBACHOL], 1%.
Still for that read-out and setting: to `COC(=O)N/N=C/c1c[n+]([O-])c2ccccc2[n+]1[O-]` [CARBADOX] belongs 3%; to `C[C@@](Cc1ccc(O)c(O)c1)(NN)C(=O)O` [CARBIDOPA], 0%; to `Cc1c(C(=O)O)c(O)cc2c1C(=O)c1c(O)c([C@@H]3O[C@H](CO)[C@@H](O)[C@H](O)[C@H]3O)c(O)c(O)c1C2=O` [CARMINIC ACID], 6%.
Consider `O=NN(CCCl)C(=O)NCCCl` [CARMUSTINE], for which the inhibition at 50 µM was determined as 10%.
For `C[N+](C)(C)CC(O)CC(=O)O.[Cl-]` (stereo not drawn) [CARNITINE (dl) HYDROCHLORIDE], the “Inhibition (%)” value is recorded as 3.
As for `CC(C)c1cc2c(c(O)c1O)[C@@]1(C(=O)O)CCCC(C)(C)[C@@H]1CC2` [CARNOSIC ACID], the inhibition at 50 µM is 2%.
On the same count and under the same terms, the result for `NCCC(=O)N[C@@H](Cc1cnc[nH]1)C(=O)O` [CARNOSINE] reads 0%.
Same read-out and setting: to `CC(C(=O)O)c1ccc2c(c1)[nH]c1ccc(Cl)cc12` (stereo not drawn) [CARPROFEN] belongs 1%; to `C[C@@H]1CC[C@H]2C(C)(C)[C@H]3C[C@@]12CC[C@@]3(C)O` [CEDROL], 13%.
Still for that read-out and setting: the result for `N[C@@H](C(=O)N[C@@H]1C(=O)N2C(C(=O)O)=C(Cl)CS[C@H]12)c1ccccc1` [CEFACLOR] reads 24%; that for `CC1=C(C(=O)O)N2C(=O)[C@@H](NC(=O)[C@H](N)c3ccc(O)cc3)[C@H]2SC1` [CEFADROXIL], 1%.
Consider `Cn1nnnc1SCC1=C(C(=O)O)N2C(=O)[C@@H](NC(=O)[C@H](OC=O)c3ccccc3)[C@H]2SC1` [CEFAMANDOLE NAFATE], for which the inhibition at 50 µM was determined as 1%.
Still for that read-out and setting: to `Cn1nnnc1SCC1=C(C(=O)O)N2C(=O)[C@@H](NC(=O)[C@H](O)c3ccccc3)[C@H]2SC1` [CEFAMANDOLE SODIUM] belongs 15%.
The same measure, in the same setting: the result for `Cc1nnc(SCC2=C(C(=O)O)N3C(=O)[C@@H](NC(=O)Cn4cnnn4)[C@H]3SC2)s1` [CEFAZOLIN SODIUM] reads 1%.
As to `CO/N=C(\C(=O)N[C@@H]1C(=O)N2C(C(=O)OCOC(=O)C(C)(C)C)=C(/C=C\c3scnc3C)CS[C@H]12)c1csc(N)n1` [CEFDITORIN PIVOXIL], the “Inhibition (%)” value stood at 2.
On the same count and under the same terms, to `O=C([O-])C1=C(CSc2nnnn2CS(=O)(=O)[O-])CS[C@@H]2[C@H](NC(=O)[C@H](O)c3ccccc3)C(=O)N12.[Na+].[Na+]` [CEFONICID SODIUM] belongs 0.
`CCN1CCN(C(=O)N[C@@H](C(=O)N[C@@H]2C(=O)N3C(C(=O)O)=C(CSc4nnnn4C)CS[C@H]23)c2ccc(O)cc2)C(=O)C1=O` [CEFOPERAZONE SODIUM]: the inhibition at 50 µM turned out to be 0%.
Take `CO/N=C(\C(=O)N[C@@H]1C(=O)N2C(C(=O)O)=C(COC(C)=O)CS[C@H]12)c1csc(N)n1` [CEFOTAXIME SODIUM]: the inhibition at 50 µM came to 32%.
The same measure, in the same setting: the result for `CO[C@@]1(NC(=O)Cc2cccs2)C(=O)N2C(C(=O)O)=C(COC(N)=O)CS[C@@H]21` [CEFOXITIN SODIUM] reads 3%; that for `COCC1=C(C(=O)OC(C)OC(=O)OC(C)C)N2C(=O)[C@@H](NC(=O)/C(=N\OC)c3csc(N)n3)[C@H]2SC1` (stereo partly drawn) [CEFPODOXIME PROXETIL], 24%.
The same measure, in the same setting: to `CC(C)(O/N=C(\C(=O)N[C@@H]1C(=O)N2C(C(=O)[O-])=C(C[n+]3ccccc3)CS[C@H]12)c1csc(N)n1)C(=O)O` [CEFTAZIDIME] belongs 70%; to `Nc1nc(/C(=C/CC(=O)O)C(=O)N[C@@H]2C(=O)N3C(C(=O)O)=CCS[C@H]23)cs1` [CEFTIBUTEN], 105%.
In the case of `CO/N=C(/C(=O)N[C@@H]1C(=O)N2C(C(=O)[O-])=C(CSc3nc(=O)c([O-])nn3C)CS[C@H]12)c1csc(N)n1.O.O.O.[Na+].[Na+]` [CEFTRIAXONE SODIUM TRIHYDRATE], the “Inhibition (%)” value is recorded as 0.
On to `CO/N=C(\C(=O)N[C@@H]1C(=O)N2C(C(=O)OC(C)OC(C)=O)=C(COC(N)=O)CS[C@H]12)c1ccco1` (stereo partly drawn) [CEFUROXIME AXETIL], for which the inhibition at 50 µM was determined as 2%.
On the same count and under the same terms, to `CO/N=C(\C(=O)N[C@@H]1C(=O)N2C(C(=O)O)=C(COC(N)=O)CS[C@H]12)c1ccco1` [CEFUROXIME SODIUM] belongs 3%.
Still for that read-out and setting: the result for `Cc1ccc(-c2cc(C(F)(F)F)nn2-c2ccc(S(N)(=O)=O)cc2)cc1` [CELECOXIB] reads 1%.
In the case of `OC[C@H]1O[C@@H](O[C@H]2[C@H](O)[C@@H](O)[C@H](O)O[C@@H]2CO)[C@H](O)[C@@H](O)[C@@H]1O` [CELLOBIOSE (D[+])], the “Inhibition (%)” value came to 0.
Still for that read-out and setting: the result for `CC(=O)OCC1=C(C(=O)[O-])N2C(=O)[C@@H](NC(=O)CCCC(N)C(=O)O)[C@H]2SC1.[Na+]` (stereo partly drawn) [CEPHALOSPORIN C SODIUM] reads 32.
In the case of `CC(=O)OCC1=C(C(=O)O)N2C(=O)[C@@H](NC(=O)Cc3cccs3)[C@H]2SC1` [CEPHALOTHIN SODIUM], the inhibition at 50 µM was 1%.
Same read-out and setting: the result for `O=C(O)COCCN1CCN(C(c2ccccc2)c2ccc(Cl)cc2)CC1` (stereo not drawn) [CETIRIZINE HYDROCHLORIDE] reads 1%; that for `CCCCCCCCCCCCCCCC[N+](C)(C)C` [CETRIMONIUM BROMIDE], 125%.
Still for that read-out and setting: to `C[C@H](CCC(=O)O)[C@H]1CC[C@H]2[C@@H]3[C@H](O)C[C@@H]4C[C@H](O)CC[C@]4(C)[C@H]3CC[C@]12C` [CHENODIOL] belongs 2%; to `COc1cc(-c2ccc(/N=N/c3ccc4c(S(=O)(=O)O)cc(S(=O)(=O)O)c(N)c4c3O)c(OC)c2)ccc1/N=N/c1ccc2c(S(=O)(=O)O)cc(S(=O)(=O)O)c(N)c2c1O` [CHICAGO SKY BLUE], 41%; to `OC[C@@H](O)[C@H]1O[C@@H]2O[C@H](C(Cl)(Cl)Cl)O[C@@H]2[C@H]1O` [CHLORALOSE], 1%.
The same measure, in the same setting: the result for `CC(=O)O[C@]1(C(C)=O)CC[C@H]2[C@@H]3C=C(Cl)C4=CC(=O)CC[C@]4(C)[C@H]3CC[C@@]21C` [CHLORMADINONE ACETATE] reads 1%; that for `[H]/N=C(\N/C(=N/[H])Nc1ccc(Cl)cc1)NC(C)C` [CHLOROGUANIDE HYDROCHLORIDE], 1%; that for `NS(=O)(=O)c1cc2c(cc1Cl)N=CNS2(=O)=O` [CHLOROTHIAZIDE], 0%.
As to `Oc1c(Cl)cc(Cl)c2cccnc12` [CHLOROXINE], the inhibition at 50 µM came out at 13%.
On the same count and under the same terms, the result for `CCCNC(=O)NS(=O)(=O)c1ccc(Cl)cc1` [CHLORPROPAMIDE] reads 1%; that for `CN(C)CC/C=C1/c2ccccc2Sc2ccc(Cl)cc21` [CHLORPROTHIXENE HYDROCHLORIDE], 2%.
The same measure, in the same setting: to `CCOP(=S)(OCC)Oc1nc(Cl)c(Cl)cc1Cl` [CHLORPYRIFOS] belongs 0%; to `Cc1ccc2c(Cl)cc(Cl)c(O)c2n1` [CHLORQUINALDOL], 0%.
With `CN(C)[C@@H]1C(O)=C(C(N)=O)C(=O)[C@@]2(O)C(O)=C3C(=O)c4c(O)ccc(Cl)c4[C@@](C)(O)[C@H]3C[C@@H]12` [CHLORTETRACYCLINE HYDROCHLORIDE], the inhibition at 50 µM came out at 77%.
In the case of `C[C@H](CCC(=O)O)[C@H]1CC[C@H]2[C@@H]3CCC4CCCC[C@]4(C)[C@H]3C=C[C@]12C` (stereo partly drawn) [CHOL-11-ENIC ACID], the inhibition at 50 µM was determined as 45%.
Still for that read-out and setting: the result for `C=C1CC[C@H](O)C/C1=C/C=C1\CCC[C@]2(C)[C@@H]([C@H](C)CCCC(C)C)CC[C@@H]12` [CHOLECALCIFEROL] reads 90%.
Regarding `CC(C)CCC[C@@H](C)[C@H]1CC[C@H]2[C@@H]3CC=C4C[C@@H](O)CC[C@]4(C)[C@H]3CC[C@]12C` [CHOLESTEROL], the inhibition at 50 µM was 0%.
Still for that read-out and setting: the result for `C[C@H](CCC(=O)O)[C@H]1CC[C@H]2[C@@H]3[C@H](O)C[C@@H]4C[C@H](O)CC[C@]4(C)[C@H]3C[C@H](O)[C@]12C` [CHOLIC ACID] reads 0%; that for `COc1cc(OC)c2c(=O)cc(-c3ccccc3)oc2c1` [CHRYSIN DIMETHYL ETHER], 1%.
